Experimental data as given in patent publication US12419874B2, “GLP-1R agonist compound and use thereof” (Chongqing Pharmaceutical Research Institute Co., Ltd., priority 2024, dated 2025).
pEC50: −log10 of the molar value.

Target: GLP-1R (Homo sapiens, UniProt P43220)
Assay: GLP-1R agonistic activity by One-Lite luciferase assay in HEK293-GLP-1R-luc cells (Example 59)
Assay type: cell-based
Settings: 6 h incubation, read-out: cAMP EC50
Protocol: The agonistic activities of the compounds of the present disclosure on GLP-1R were evaluated by detecting the generation of cAMP.
• (1) Cell line: HEK293-GLP-1R-luc Stable Cell Line (Cobioer, CBP71117); • (2) Culture medium: DMEM+10% FBS (Gibco); • (3) Kit: One-Lite™ kit Luciferase Assay System (Vazyme). 2. Experimental Procedures • (1) HEK293-GLP1R cells were inoculated in a 96-well plate at a density of 30000 cells per well; • (2) 10× working solution of each compound was formulated; • (3) 10 μL of 10× working solution of each compound was added to corresponding well and incubated at 37° C. for 6 h; • (4) 100 μL of One-Lite Luciferase Assay Substrate formulated using One-Lite Luciferase Assay Buffer was added to each well; • (5) The plate was incubated at room temperature for 3 min; • (6) The plate was read by a multimode microplate reader to detect chemiluminescence. 3. Data Analysis • (1) % Activity was calculated by the following formula: % Activity=100−(Signalcmpd−SignalAve-PC)/(SignalAve-VC−SignalAve-PC)×100 • (2) The dose-response curve was plotted to calculate EC50: Y=Bottom+(Top−Bottom)/(1+10^(Log EC50−X)*HillSlope)) • X: log of agonist concentration; Y: Activity. 4. Experimental Results

GLP-1R, sequence (P43220 24-463): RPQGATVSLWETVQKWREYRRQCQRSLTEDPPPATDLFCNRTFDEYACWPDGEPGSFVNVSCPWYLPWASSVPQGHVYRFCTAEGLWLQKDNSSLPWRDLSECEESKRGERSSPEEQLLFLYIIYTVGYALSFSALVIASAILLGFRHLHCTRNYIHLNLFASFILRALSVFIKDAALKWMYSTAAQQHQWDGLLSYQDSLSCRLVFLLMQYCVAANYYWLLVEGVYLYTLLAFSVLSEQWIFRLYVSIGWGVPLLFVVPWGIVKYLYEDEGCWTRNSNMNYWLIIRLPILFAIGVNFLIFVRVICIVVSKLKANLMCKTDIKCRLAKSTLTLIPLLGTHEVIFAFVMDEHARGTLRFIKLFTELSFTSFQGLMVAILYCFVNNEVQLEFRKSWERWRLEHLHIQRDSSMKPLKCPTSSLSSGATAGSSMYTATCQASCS

pEC50 | Structure (SMILES)
≥ 7.70 | Cc1cc(-n2nc3c(c2-n2ccn(-c4ccc5c(cnn5C)c4F)c2=O)[C@H](C)N(C(=O)c2cc4cc([C@H]5CCOC(C)(C)C5)ccc4n2[C@@]2(c4noc(=O)[nH]4)C[C@@H]2C)CC32CCSCC2)cc(C)c1F [Compound 188]
≥ 7.70 | Cc1cc(-n2nc3c(c2-n2ccn(-c4ccc5c(cnn5C)c4F)c2=O)[C@H](C)N(C(=O)c2cc4cc([C@H]5CCOC(C)(C)C5)ccc4n2[C@@]2(c4noc(=O)[nH]4)C[C@@H]2C)CC32CSC2)cc(C)c1F [Compound 189]
≥ 7.70 | Cc1cc(-n2nc3c(c2-n2ccn(-c4ccc5c(cnn5C)c4F)c2=O)[C@H](C)N(C(=O)c2cc4cc([C@H]5CCOC(C)(C)C5)ccc4n2[C@@]2(c4noc(=O)[nH]4)C[C@@H]2C)CC32C[S+]([O-])C2)cc(C)c1F (stereo partly drawn) [Compound 190]
≥ 7.70 | Cc1cc(-n2nc3c(c2-n2ccn(-c4ccc5c(cnn5C)c4F)c2=O)[C@H](C)N(C(=O)c2cc4cc([C@H]5CCOC(C)(C)C5)ccc4n2[C@@]2(c4noc(=O)[nH]4)C[C@@H]2C)CC32CS(=O)(=O)C2)cc(C)c1F [Compound 191]
≥ 7.70 | Cc1cc(-n2nc3c(c2-n2ccn(-c4ccc5c(cnn5C)c4F)c2=O)[C@H](C)N(C(=O)c2cc4cc([C@H]5CCOC(C)(C)C5)ccc4n2[C@@]2(c4noc(=O)[nH]4)C[C@@H]2C)CC32CC(OC(C)C)C2)cc(C)c1F (stereo partly drawn) [Compound 192]
≥ 7.70 | Cc1cc(-n2nc3c(c2-n2ccn(-c4ccc5c(cnn5C)c4F)c2=O)[C@H](C)N(C(=O)c2cc4cc([C@H]5CCOC(C)(C)C5)ccc4n2[C@@]2(c4noc(=O)[nH]4)C[C@@H]2C)CC32CC(OC3CC3)C2)cc(C)c1F (stereo partly drawn) [Compound 193]
≥ 7.70 | Cc1cc(-n2nc3c(c2-n2ccn(-c4ccc5c(cnn5C)c4F)c2=O)[C@H](C)N(C(=O)c2cc4cc([C@H]5CCOC(C)(C)C5)ccc4n2[C@@]2(c4noc(=O)[nH]4)C[C@@H]2C)CC32CC(OC(F)F)C2)cc(C)c1F (stereo partly drawn) [Compound 194]
≥ 7.70 | Cc1cc(-n2nc3c(c2-n2ccn(-c4ccc5c(cnn5C)c4F)c2=O)[C@H](C)N(C(=O)c2cc4cc([C@H]5CCOC(C)(C)C5)ccc4n2[C@@]2(c4noc(=O)[nH]4)C[C@@H]2C)CC32CCNC2)cc(C)c1F (stereo partly drawn) [Compound 195]
≥ 7.70 | Cc1cc(-n2nc3c(c2-n2ccn(-c4ccc5c(cnn5C)c4F)c2=O)[C@H](C)N(C(=O)c2cn4cc(C5CCOC(C)(C)C5)ccc4c2C2(c4noc(=O)[nH]4)CC2)CC32CC2)cc(C)c1F (stereo partly drawn) [Compound 196]
≥ 7.70 | Cc1cc(-n2nc3c(c2-n2ccn(-c4ccc5c(cnn5C)c4F)c2=O)[C@H](C)N(C(=O)c2cc4cc([C@H]5CCOC(C)(C)C5)ccc4n2[C@@]2(c4noc(=O)[nH]4)C[C@@H]2C)CC32C=CCC2)cc(C)c1F (stereo partly drawn) [Compound 197]
≥ 7.70 | Cc1cc(-n2nc3c(c2-n2ccn(-c4ccc5c(cnn5C)c4F)c2=O)[C@H](C)N(C(=O)c2cc4cc([C@H]5CCOC(C)(C)C5)ccc4n2[C@@]2(c4noc(=O)[nH]4)C[C@@H]2C)CC32CCC(=O)CC2)cc(C)c1F [Compound 198]
≥ 7.70 | Cc1cc(-n2nc3c(c2-n2ccn(-c4ccc5c(cnn5C)c4F)c2=O)[C@H](C)N(C(=O)c2cc4cc([C@H]5CCOC(C)(C)C5)ccc4n2[C@@]2(c4noc(=O)[nH]4)C[C@@H]2C)CC32CCC(O)CC2)cc(C)c1F (stereo partly drawn) [Compound 199]
7.00 to 7.70 | Cc1cc(-n2nc3c(c2-n2ccn(-c4ccc5c(cnn5C)c4F)c2=O)[C@H](C)N(C(=O)c2cc4cc([C@H]5CCOC(C)(C)C5)ccc4n2[C@@]2(c4noc(=O)[nH]4)C[C@@H]2C)CC32CCC(F)(F)CC2)cc(C)c1F [Compound 200]
7.00 to 7.70 | Cc1cc(-n2nc3c(c2-n2ccn(-c4ccc5c(cnn5C)c4F)c2=O)[C@H](C)N(C(=O)c2cc4cc([C@H]5CCOC(C)(C)C5)ccc4n2[C@@]2(c4noc(=O)[nH]4)C[C@@H]2C)CC32CCC(F)CC2)cc(C)c1F (stereo partly drawn) [Compound 201]
≥ 7.70 | COC1CCC2(CC1)CN(C(=O)c1cc3cc([C@H]4CCOC(C)(C)C4)ccc3n1[C@@]1(c3noc(=O)[nH]3)C[C@@H]1C)[C@@H](C)c1c2nn(-c2cc(C)c(F)c(C)c2)c1-n1ccn(-c2ccc3c(cnn3C)c2F)c1=O (stereo partly drawn) [Compound 202]
≥ 7.70 | Cc1cc(-n2nc3c(c2-n2ccn(-c4ccc5c(cnn5C)c4F)c2=O)[C@H](C)N(C(=O)c2cc4cc([C@H]5CCOC(C)(C)C5)ccc4n2[C@@]2(c4noc(=O)[nH]4)C[C@@H]2C)CC32CC=CCC2)cc(C)c1F (stereo partly drawn) [Compound 203]
≥ 7.70 | [2H]C([2H])([2H])OC1CC2(C1)CN(C(=O)c1cc3cc([C@H]4CCOC(C)(C)C4)ccc3n1[C@@]1(c3noc(=O)[nH]3)C[C@@H]1C)[C@@H](C)c1c2nn(-c2cc(C)c(F)c(C)c2)c1-n1ccn(-c2ccc3c(cnn3C)c2F)c1=O (stereo partly drawn) [Compound 207]

pEC50 | Structure (SMILES)
≥ 7.70 | Cc1cc(-n2nc3c(c2-n2ccn(-c4ccc5c(cnn5C)c4F)c2=O)[C@H](C)N(C(=O)c2cc4cc([C@H]5CCOC(C)(C)C5)ccc4n2[C@@]2(c4noc(=O)[nH]4)C[C@@H]2C)CC32CCC(=O)C2)cc(C)c1F (stereo partly drawn) [Compound 208]
≥ 7.70 | Cc1cc(-n2nc3c(c2-n2ccn(-c4ccc5c(cnn5C)c4F)c2=O)[C@H](C)N(C(=O)c2cc4cc([C@H]5CCOC(C)(C)C5)ccc4n2[C@@]2(c4noc(=O)[nH]4)C[C@@H]2C)CC32CCC(O)C2)cc(C)c1F (stereo partly drawn) [Compound 209]
≥ 7.70 | COC1CCC2(C1)CN(C(=O)c1cc3cc([C@H]4CCOC(C)(C)C4)ccc3n1[C@@]1(c3noc(=O)[nH]3)C[C@@H]1C)[C@@H](C)c1c2nn(-c2cc(C)c(F)c(C)c2)c1-n1ccn(-c2ccc3c(cnn3C)c2F)c1=O (stereo partly drawn) [Compound 210]
≥ 7.70 | Cc1cc(-n2nc3c(c2-n2ccn(-c4ccc5c(cnn5C)c4F)c2=O)[C@H](C)N(C(=O)c2cc4cc([C@H]5CCOC(C)(C)C5)ccc4n2[C@@]2(c4noc(=O)[nH]4)C[C@@H]2C)CC32CCC(F)C2)cc(C)c1F (stereo partly drawn) [Compound 211]
≥ 7.70 | Cc1cc(-n2nc3c(c2-n2ccn(-c4ccc5c(cnn5C)c4F)c2=O)[C@H](C)N(C(=O)c2cc4cc([C@H]5CCOC(C)(C)C5)ccc4n2[C@@]2(c4noc(=O)[nH]4)C[C@@H]2C)CC32CCC(F)(F)C2)cc(C)c1F (stereo partly drawn) [Compound 212]
≥ 7.70 | Cc1cc(-n2nc3c(c2-n2ccn(-c4ccc5c(cnn5C)c4F)c2=O)[C@H](C)N(C(=O)c2cc4cc([C@H]5CCOC(C)(C)C5)ccc4n2[C@@]2(c4noc(=O)[nH]4)C[C@@H]2C)CC32CC(O)C(O)C2)cc(C)c1F (stereo partly drawn) [Compound 213]
≥ 7.70 | COC1CC2(CC1OC)CN(C(=O)c1cc3cc([C@H]4CCOC(C)(C)C4)ccc3n1[C@@]1(c3noc(=O)[nH]3)C[C@@H]1C)[C@@H](C)c1c2nn(-c2cc(C)c(F)c(C)c2)c1-n1ccn(-c2ccc3c(cnn3C)c2F)c1=O (stereo partly drawn) [Compound 214]
≥ 7.70 | Cc1cc(-n2nc3c(c2-n2ccn(-c4ccc5c(cnn5C)c4F)c2=O)[C@H](C)N(C(=O)c2cc4cc([C@H]5CCOC(C)(C)C5)ccc4n2[C@@]2(c4noc(=O)[nH]4)C[C@@H]2C)CC32CC(C)C2)cc(C)c1F (stereo partly drawn) [Compound 219]
≥ 7.70 | CNC1CC2(C1)CN(C(=O)c1cc3cc([C@H]4CCOC(C)(C)C4)ccc3n1[C@@]1(c3noc(=O)[nH]3)C[C@@H]1C)[C@@H](C)c1c2nn(-c2cc(C)c(F)c(C)c2)c1-n1ccn(-c2ccc3c(cnn3C)c2F)c1=O (stereo partly drawn) [Compound 220]
≥ 7.70 | Cc1cc(-n2nc3c(c2-n2ccn(-c4ccc5c(cnn5C5CC5)c4F)c2=O)[C@H](C)N(C(=O)c2cc4cc([C@H]5CCOC(C)(C)C5)ccc4n2[C@@]2(c4noc(=O)[nH]4)C[C@@H]2C)CC32CC2)cc(C)c1F [Compound 221]
≥ 7.70 | CCn1ncc2c(F)c(-n3ccn(-c4c5c(nn4-c4cc(C)c(F)c(C)c4)C4(CC4)CN(C(=O)c4cc6cc([C@H]7CCOC(C)(C)C7)ccc6n4[C@@]4(c6noc(=O)[nH]6)C[C@@H]4C)[C@H]5C)c3=O)ccc21 [Compound 222]
≥ 7.70 | Cc1cc(-n2nc3c(c2-n2ccn(-c4ccc5c(cnn5CC(F)(F)F)c4F)c2=O)[C@H](C)N(C(=O)c2cc4cc([C@H]5CCOC(C)(C)C5)ccc4n2[C@@]2(c4noc(=O)[nH]4)C[C@@H]2C)CC32CC2)cc(C)c1F [Compound 223]
7.00 to 7.70 | Cc1cc(-n2nc3c(c2-n2ccn(-c4ccc5nn(CC(F)(F)F)cc5c4F)c2=O)[C@H](C)N(C(=O)c2cc4cc([C@H]5CCOC(C)(C)C5)ccc4n2[C@@]2(c4noc(=O)[nH]4)C[C@@H]2C)CC32CC2)cc(C)c1F [Compound 224]
≥ 7.70 | Cc1cc(-n2nc3c(c2-n2ccn(-c4ccc5c(cnn5C)c4F)c2=O)[C@H](C)N(C(=O)c2cc4cc([C@H]5CCOC(C)(C)C5)ccc4n2[C@@]2(c4noc(=O)[nH]4)C[C@@H]2C)CC32CC2(F)F)cc(C)c1F (stereo partly drawn) [Compound 225]
7.00 to 7.70 | Cc1cc(-n2nc3c(c2-n2ccn(-c4ccc5c(cnn5C)c4F)c2=O)[C@H](C)N(C(=O)c2cc4cc([C@H]5CCOC(C)(C)C5)ccc4n2[C@@]2(c4noc(=O)[nH]4)C[C@@H]2C)CC32C[C@@H]2C)cc(C)c1F (stereo partly drawn) [Compound 227]
≥ 7.70 | CNC1CCC2(C1)CN(C(=O)c1cc3cc([C@H]4CCOC(C)(C)C4)ccc3n1[C@@]1(c3noc(=O)[nH]3)C[C@@H]1C)[C@@H](C)c1c2nn(-c2cc(C)c(F)c(C)c2)c1-n1ccn(-c2ccc3c(cnn3C)c2F)c1=O (stereo partly drawn) [Compound 229]
